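Cultured in 96-well plates, cells were exposed to test compound for 48 hours across five concentrations. Definition used: TGI = concentration required for complete inhibition of growth.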
Tests used:
Test in all cases: inhibition of tumour cell growth, NCI panel, 48 h
[1] = tested on: T-47D breast
[2] = tested on: UACC-257 melanoma
[3] = tested on: SN12C renal
[4] = tested on: UACC-62 melanoma
[5] = tested on: UO-31 renal
[6] = tested on: IGROV1 ovarian
[7] = tested on: K-562 leukemia
[8] = tested on: HCT-116 colon
[9] = tested on: MDA-N
[10] = tested on: SNB-78 CNS
[11] = tested on: KM20L2 colon

| SMILES | TGI [1] [µM] | TGI [2] [µM] | TGI [3] [µM] | TGI [4] [µM] | TGI [5] [µM] | TGI [6] [µM] | TGI [7] [µM] | TGI [8] [µM] | TGI [9] [µM] | TGI [10] [µM] | TGI [11] [µM] |
| --- | --- | --- | --- | --- | --- | --- | --- | --- | --- | --- | --- |
| COC(=O)c1c2c(cc3c1CC1(Cc4ccccc4C1)C3)CCC2 | 43.2 | 47 | 95.8 | 58.8 | > 100 | > 100 | 24.3 | 84.4 | 33.9 |  |  |
| CN1C(=O)C23CCCC2CC1(c1ccccc1)S3 (stereo unspecified) | > 100 | 80.6 | > 100 | > 100 | > 100 | > 100 | > 100 | > 100 | > 100 |  |  |
| CCC(Nc1ncnc2nc[nH]c12)C(=O)O (stereo unspecified) | > 100 | > 100 | > 100 | > 100 | > 100 | > 100 | > 100 | > 100 | > 100 |  |  |
| Cc1ccc(NC(=O)C2C3CCC(O3)C2C(=O)O)cc1 (stereo unspecified) |  | > 100 | > 81.4 | > 100 | > 100 | > 100 | > 77.6 | > 54.7 |  | > 100 | > 57.8 |
| O=C1c2cccnc2-c2nccc3c2c1nc1ccccc13 | 2.08 | 1.06 | 1.03 | 0.541 | 0.634 | 1.33 | 0.667 | 0.18 | 0.359 |  |  |
| O=c1/c(=C/c2ccccn2)sc2nc3cc4c(cc3n12)OCCO4 | > 100 | > 100 | > 100 | > 100 | > 100 | > 100 | > 100 | > 100 | > 100 |  |  |
| CC(=O)OCC1OC(N=[N+]=[N-])C(OC(C)=O)C(OC(C)=O)C1OC1OC(COC(C)=O)C(OC(C)=O)C(OC(C)=O)C1OC(C)=O (stereo unspecified) |  | > 100 | > 100 | > 100 | > 100 | > 100 | > 100 |  |  | > 100 | > 100 |
| CCOC(=O)c1nc2cc(Cl)ccc2[nH]c1=O | > 100 | > 100 | > 100 | > 100 | > 100 | > 100 | > 100 | > 100 | > 100 |  |  |
| Cc1[nH]c2nccn2c(=O)c1CCO | > 10 | > 10 | > 10 | > 10 | > 10 | > 10 | > 10 | > 10 | > 10 |  |  |
| CSc1ccc2c(c1)c(CCN)c(C)n2Cc1ccccc1Cl | 3.09 | 3.29 | 3.06 | 3.05 | 2.96 | 3.25 | 2.83 | 3.07 | 3.11 |  |  |
| CCOC(=O)NN(C(=O)OCC)C(C(=O)c1ccccc1)N(NC(=O)OCC)C(=O)OCC | > 100 | > 100 | > 100 | > 100 | > 100 | > 100 | > 100 | > 100 | > 100 |  |  |
| CN(C)S(=O)(=O)c1nc(Cl)c2[nH]cnc2n1 | > 100 | > 100 | > 100 | > 100 | > 100 | > 100 | > 100 | > 100 | > 100 |  |  |
| CCOC(=O)c1cc(C)nc2c1c(=O)n(-c1ccccc1)c(=O)n2CCCCN1CCN(c2ncccn2)CC1 | > 100 | > 100 | > 100 | > 100 | > 100 | > 100 | > 100 | > 100 | > 100 |  |  |
| Cc1ccnc(Nc2[nH]c(C(=O)c3ccc(Cl)cc3)c(N)c2C(=S)Nc2ccccc2)c1 | > 100 | 32.7 | 31 | 25.3 | 37.2 | 30.9 | 52.4 | 30 | 47.9 |  |  |
| O=C1Nc2ccc(Cl)c(I)c2C1=O |  | 33 | 30.9 | 34.8 | 38.8 | 30.9 | 65.5 | 28.8 |  |  | 34.9 |
| CC#COS(=O)(=O)c1ccc(C)cc1 |  | > 100 | > 100 | > 100 | > 100 | > 100 | > 100 | > 100 |  | > 100 | > 100 |
| O=S(=O)(/N=C(\NO)Nc1ccc(Cl)cc1)c1cc2ccccc2s1 | 84.2 | 49.9 | 33 | 29.3 | 48.7 | 28.7 | > 100 | 30.2 | 36.6 |  |  |
